Measured values from patent US9156827B2, “Anticancer agent” (THE UNIVERSITY OF TOKYO, priority 2010, dated 2015).
Counter-ions that a name gives are not always drawn.

Tests used:
pim-1 kinase = pim-1 kinase (Homo sapiens, UniProt P11309); assay: Measurement of pim-1 kinase inhibitory activity (fluorescent substrate peptide, capillary electrophoresis); format: biochemical; conditions: 0.1 μM of each compound, 30 μM ATP, 1.5 μM substrate peptide, room temperature 2 hours; Table 1
Procedure: Measurement of Pim-1 Kinase Inhibitory Activity
The result of the reaction was determined by quantifying the substrate and the phosphorylated reaction product separated by capillary electrophoresis based on difference in charges of the substances (EZ Reader II, Caliper Life Sciences, was used).

[1] = test system: human acute myeloid leukemia MV4.11 cells; assay: Cell proliferation-suppressing activity, fluorescence method (Alamar Blue assay); format: cell-based; conditions: 48 h, compound 1 μM, Alamar Blue assay two days after inoculation, Table 5
Procedure: Measurement of Cell Proliferation-Suppressing Activity (Fluorescence Method)
Each compound was added to a 96-well microtiter plate at a final concentration of 1 μM, then human acute myeloid leukemia MV4.11 cells (10^4 cells) were inoculated, and the Alamar Blue assay was performed two days after the inoculation (measurement of fluorescence: Ex. 535 nm, Em. 590 nm) to measure cell proliferation-suppressing activity.

Sequence of pim-1 kinase (P11309 whole entry): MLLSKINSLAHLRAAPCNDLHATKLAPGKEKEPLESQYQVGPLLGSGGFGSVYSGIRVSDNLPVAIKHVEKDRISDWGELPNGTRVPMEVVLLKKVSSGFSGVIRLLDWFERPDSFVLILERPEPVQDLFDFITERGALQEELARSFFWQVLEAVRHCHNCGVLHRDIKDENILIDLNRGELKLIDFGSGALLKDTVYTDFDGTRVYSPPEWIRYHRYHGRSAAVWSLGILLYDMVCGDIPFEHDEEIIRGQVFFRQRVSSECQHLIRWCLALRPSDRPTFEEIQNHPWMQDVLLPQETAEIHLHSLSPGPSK

O=C1/C(=C/c2cn(S(=O)(=O)c3ccc(Cl)cc3Cl)c3ccccc23)Oc2c1ccc(O)c2CN1CCNCC1 [Compound A39, (Z)-2-{[1-(2,4-Dichlorophenylsulfonyl)-1H-indol-3-yl]methylene}-6-hydroxy-7-(piperazin-1-ylmethyl)benzofuran-3(2H)-one dihydrochloride]
inhibition at 0.1 µM (pim-1 kinase): 99%
inhibition at 1 µM [1]: 51%

O=C1/C(=C/c2cn(S(=O)(=O)c3ccc(C(F)(F)F)cc3)c3ccccc23)Oc2c1ccc(O)c2CN1CCNCC1 [Compound A34, (Z)-6-Hydroxy-7-(piperazin-1-ylmethyl)-2-({1-[4-(trifluoromethyl)phenylsulfonyl]-1H-indol-3-yl}methylene)benzofuran-3(2H)-one dihydrochloride]
inhibition at 0.1 µM (pim-1 kinase): 98%
inhibition at 1 µM [1]: 58%

O=C1/C(=C/c2cn(S(=O)(=O)c3cccc(Cl)c3Cl)c3ccccc23)Oc2c1ccc(O)c2CN1CCNCC1 [Compound A38, (Z)-2-{[1-(2,3-Dichlorophenylsulfonyl)-1H-indol-3-yl]methylene}-6-hydroxy-7-(piperazin-1-ylmethyl)benzofuran-3(2H)-one dihydrochloride]
inhibition at 0.1 µM (pim-1 kinase): 99%
inhibition at 1 µM [1]: 43%

O=C1CN(Cc2c(O)ccc3c2O/C(=C\c2c[nH]c4ncccc24)C3=O)CCN1 [Compound A45, (Z)-4-({2-[(1H-Pyrrolo[2,3-b]pyridin-3-yl)methylene]-6-hydroxy-3-oxo-2,3-dihydrobenzofuran-7-yl}methyl)piperazin-2-one]
inhibition at 0.1 µM (pim-1 kinase): 83%
inhibition at 1 µM [1]: 15%
